Like-named read-outs stand apart in the source and are kept apart here.
How the values were obtained:
E. coli CsgA = biological target: T1, E. coli CsgA (Escherichia coli, UniProt P28307); experiment: In vitro ThioflavinT assay of CsgA aggregation (CsgA ThT Assay); format: biochemical; settings: for remaining activity at 25 µM: compound 25 μM; for remaining activity at 100 µM: compound 100 μM
T1 construct: made in house; host or cells: E. coli NEB 3016 slyD::kan, pET11d
Procedure, shortened: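 Purified C-terminal His-tagged CsgA, monomerised by desalting and 30-kDa filtration, at 2-20 μM with 20-40 μM ThT in 50 mM potassium phosphate pH 7.3, 1% DMSO, compounds 3.125-200 uM; room temperature, fluorescence (ex 438/em 495 nm) read every 15 min. Background-subtracted signal expressed as percent inhibition versus vehicle at 6-6.5 or 8-9 h, or as percent control AUC.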

[1] = system: CsgA gene expression (csgBAC promoter-GFP reporter) in E. coli UTI89; experiment: In vitro live cell fluorescent reporter assay of CsgA transcription (Reporter Assay); format: cell-based; settings: Escherichia coli
Procedure, shortened: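 Chromosomal single-copy csgBAC promoter–GFP reporter in E. coli UTI89, started at OD600 0.003 in YESCA broth with compound (0.14–100 μM, 1% DMSO), 20 h at 27 °C. GFP (ex 485/em 525 nm) background-subtracted and normalized to vehicle; IC50 and X[50] from curve fits. OD600 tracked growth effects.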

[2] = read-out: CsgA ThT Assay (10 μM CsgA) % Control AUC at 1005 minutes, 25 μM (activity range), CsgA 10 μM, black plates, 1005 minutes, class symbol
[3] = read-out: CsgA ThT Assay (10 μM CsgA) % Control AUC at 1005 minutes, 25 μM, mean AUC as % of DMSO control, CsgA 10 μM, black plates, 1005 minutes
[4] = read-out: CsgA ThT Assay (10 μM CsgA) % Control AUC at 1005 minutes, 100 μM (activity range), CsgA 10 μM, black plates, 1005 minutes, class symbol
[5] = read-out: CsgA ThT Assay (10 μM CsgA) % Control AUC at 1005 minutes, 100 μM, mean AUC as % of DMSO control, CsgA 10 μM, black plates, 1005 minutes
[6] = read-out: Reporter Assay Abs IC50 (activity range), median Abs IC50 in the CsgA reporter assay, class symbol
[7] = read-out: Reporter Assay Abs IC50 (μM), median Abs IC50 in the CsgA reporter assay, N/A = maximum expression reduction is <50% of control
[8] = read-out: CsgA ThT Assay (2 μM CsgA) % Control Bmax 25 μM, activity range, class symbol, CsgA 2 μM, white plates
[9] = read-out: CsgA ThT Assay (2 μM CsgA) % Control Bmax 25 μM, mean Bmax as percentage of DMSO control, CsgA 2 μM, white plates
[10] = read-out: CsgA ThT Assay (2 μM CsgA) % Control Bmax 100 μM, activity range, class symbol, CsgA 2 μM, white plates
[11] = read-out: CsgA ThT Assay (2 μM CsgA) % Control Bmax 100 μM, mean Bmax as percentage of DMSO control, CsgA 2 μM, white plates
[12] = read-out: Reporter Assay Abs IC50, activity range, class symbol

T1 sequence (P28307 23-151): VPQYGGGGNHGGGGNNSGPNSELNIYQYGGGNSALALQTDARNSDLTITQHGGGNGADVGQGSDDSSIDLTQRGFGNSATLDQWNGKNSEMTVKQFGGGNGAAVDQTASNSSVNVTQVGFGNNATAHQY

| Structure (SMILES) | remaining activity at 25 µM (E. coli CsgA; [2]) [%] | remaining activity at 25 µM (E. coli CsgA; [3]) [%] | remaining activity at 100 µM (E. coli CsgA; [4]) [%] | remaining activity at 100 µM (E. coli CsgA; [5]) [%] | IC50 [1, 6] [µM] | IC50 [1, 7] [µM] | remaining activity at 25 µM (E. coli CsgA; [8]) [%] | remaining activity at 25 µM (E. coli CsgA; [9]) [%] | remaining activity at 100 µM (E. coli CsgA; [10]) [%] | remaining activity at 100 µM (E. coli CsgA; [11]) [%] | IC50 [1, 12] [µM] |
| --- | --- | --- | --- | --- | --- | --- | --- | --- | --- | --- | --- |
| CCCN1CC(C(=O)O)n2c(c(-c3cccc(C(F)(F)F)c3)c(Cc3cccc4ccccc34)c(C(C)C)c2=O)S1(=O)=O (stereo not drawn) [Compound 125, 7-isopropyl-8-(naphthalen-1-ylmethyl)-6-oxo-2-propyl-9-(3-(trifluoromethyl)phenyl)-3,4-dihydro-2H,6H-pyrido[1,2-e][1,2,5]thiadiazine-4-carboxylic acid 1,1-dioxide] | 11 to 31 | 25 | 31 to 60 | 44 | 1.3 to 4.5 | 2.7 | – | – | – | – | – |
| CCCN1CC(C(=O)O)n2c(c(-c3cccc(C(F)(F)F)c3)c(Cc3cccc4ccccc34)c(NCC3CCCC3)c2=O)S1(=O)=O (stereo not drawn) [Compound 128, 7-((cyclopentylmethyl)amino)-8-(naphthalen-1-ylmethyl)-6-oxo-2-propyl-9-(3-(trifluoromethyl)phenyl)-3,4-dihydro-2H,6H-pyrido[1,2-e][1,2,5]thiadiazine-4-carboxylic acid 1,1-dioxide] | 11 to 31 | 29 | 11 to 31 | 28 | 1.3 to 4.5 | 2.2 | – | – | – | – | – |
| O=C(O)CC1CSc2c(-c3cccc(C(F)(F)F)c3)c(Cc3cccc4ccccc34)cc(=O)n21 (stereo not drawn) [Compound 129, 2-(7-(naphthalen-1-ylmethyl)-5-oxo-8-(3-(trifluoromethyl)phenyl)-2,3-dihydro-5H-thiazolo[3,2-a]pyridin-3-yl)acetic acid] | 11 to 31 | 28 | > 60 | 61 | 1.3 to 4.5 | 3.4 | – | – | – | – | – |
| O=C(O)CC1CS(=O)(=O)c2c(-c3cccc(C(F)(F)F)c3)c(Cc3cccc4ccccc34)cc(=O)n21 (stereo not drawn) [Compound 130, 2-(7-(naphthalen-1-ylmethyl)-1,1-dioxido-5-oxo-8-(3-(trifluoromethyl)phenyl)-2,3-dihydro-5H-thiazolo[3,2-a]pyridin-3-yl)acetic acid] | 31 to 60 | 49 | 11 to 31 | 15 | > 10 | 14.8 | – | – | – | – | – |
| O=C(O)C1CN(C2CCCCC2)S(=O)(=O)c2c(-c3cccc(C(F)(F)F)c3)c(Cc3cccc4ccccc34)c(NC3CCCC3)c(=O)n21 (stereo not drawn) [Compound 131, 2-cyclohexyl-7-(cyclopentylamino)-8-(naphthalen-1-ylmethyl)-6-oxo-9-(3-(trifluoromethyl)phenyl)-3,4-dihydro-2H,6H-pyrido[1,2-e][1,2,5]thiadiazine-4-carboxylic acid 1,1-dioxide] | – | – | – | – | – | 0.9 | 31 to 60 | 53 | > 60 | 94 | < 1.3 |
| CCCN1CC(C(=O)O)n2c(c(-c3cccc(C(F)(F)F)c3)c(Cc3cccc4ccccc34)c(C3CC3)c2=O)S1(=O)=O (stereo not drawn) [Compound 132, 7-cyclopropyl-8-(naphthalen-1-ylmethyl)-6-oxo-2-propyl-9-(3-(trifluoromethyl)phenyl)-3,4-dihydro-2H,6H-pyrido[1,2-e][1,2,5]thiadiazine-4-carboxylic acid 1,1-dioxide] | – | – | – | – | – | 2.4 | > 60 | 76 | > 60 | 122 | 1.3 to 4.5 |
| O=C(O)C1CNc2c(-c3cccc(C(F)(F)F)c3)c(Cc3cccc4ccccc34)c(Br)c(=O)n21 (stereo not drawn) [Compound 133, 6-bromo-7-(naphthalen-1-ylmethyl)-5-oxo-8-(3-(trifluoromethyl)phenyl)-1,2,3,5-tetrahydroimidazo[1,2-a]pyridine-3-carboxylic acid] | – | – | – | – | – | 3.7 | > 60 | 71 | 31 to 60 | 36 | 1.3 to 4.5 |
| O=C(O)C1CNc2c(-c3cccc(C(F)(F)F)c3)c(C(F)(F)c3cccc4ccccc34)cc(=O)n21 (stereo not drawn) [Compound 134, 7-(difluoro(naphthalen-1-yl)methyl)-5-oxo-8-(3-(trifluoromethyl)phenyl)-1,2,3,5-tetrahydroimidazo[1,2-a]pyridine-3-carboxylic acid] | – | – | – | – | – | 15.6 | > 60 | 92 | > 60 | 66 | > 10 |
| CN1CC(C(=O)O)n2c1c(-c1cccc(C(F)(F)F)c1)c(C(F)(F)c1cccc3ccccc13)cc2=O (stereo not drawn) [Compound 135, 7-(difluoro(naphthalen-1-yl)methyl)-1-methyl-5-oxo-8-(3-(trifluoromethyl)phenyl)-1,2,3,5-tetrahydroimidazo[1,2-a]pyridine-3-carboxylic acid] | – | – | – | – | – | 4 | > 60 | 88 | > 60 | 67 | 1.3 to 4.5 |
| CCc1c(Cc2cccc3ccccc23)c(-c2cccc(C(F)(F)F)c2)c2n(c1=O)C(C(=O)O)CN2C (stereo not drawn) [Compound 136, 6-ethyl-1-methyl-7-(naphthalen-1-ylmethyl)-5-oxo-8-(3-(trifluoromethyl)phenyl)-1,2,3,5-tetrahydroimidazo[1,2-a]pyridine-3-carboxylic acid] | – | – | – | – | – | 3.5 | > 60 | 77 | 11 to 31 | 27 | 1.3 to 4.5 |
| O=C(O)C1CNS(=O)(=O)c2c(-c3cccc(C(F)(F)F)c3)c(C(F)(F)c3cccc4ccccc34)cc(=O)n21 (stereo not drawn) [Compound 137, 8-(difluoro(naphthalen-1-yl)methyl)-6-oxo-9-(3-(trifluoromethyl)phenyl)-3,4-dihydro-2H,6H-pyrido[1,2-e][1,2,5]thiadiazine-4-carboxylic acid 1,1-dioxide] | – | – | – | – | – | 2.2 | > 60 | 81 | 31 to 60 | 50 | 1.3 to 4.5 |
| CCCN1CC(C(=O)O)n2c(c(-c3cccc(C(F)(F)F)c3)c(Cc3cccc4ccccc34)c(CC(C)C)c2=O)S1(=O)=O (stereo not drawn) [Compound 139, 7-isobutyl-8-(naphthalen-1-ylmethyl)-6-oxo-2-propyl-9-(3-(trifluoromethyl)phenyl)-3,4-dihydro-2H,6H-pyrido[1,2-e][1,2,5]thiadiazine-4-carboxylic acid 1,1-dioxide] | – | – | – | – | – | 2.5 | 31 to 60 | 51 | 31 to 60 | 35 | 1.3 to 4.5 |
| CC(C)CN1CC(C(=O)O)n2c(c(-c3cccc(C(F)(F)F)c3)c(Cc3cccc4ccccc34)c(NC3CCCC3)c2=O)S1(=O)=O (stereo not drawn) [Compound 145, 7-(cyclopentylamino)-2-isobutyl-8-(naphthalen-1-ylmethyl)-6-oxo-9-(3-(trifluoromethyl)phenyl)-3,4-dihydro-2H,6H-pyrido[1,2-e][1,2,5]thiadiazine-4-carboxylic acid 1,1-dioxide] | – | – | – | – | – | 2 | > 60 | 76 | 31 to 60 | 39 | 1.3 to 4.5 |
| O=C(O)C1CN(C2CCCC2)S(=O)(=O)c2c(-c3cccc(C(F)(F)F)c3)c(Cc3cccc4ccccc34)c(NC3CCCC3)c(=O)n21 (stereo not drawn) [Compound 150, 2-cyclopentyl-7-(cyclopentylamino)-8-(naphthalen-1-ylmethyl)-6-oxo-9-(3-(trifluoromethyl)phenyl)-3,4-dihydro-2H,6H-pyrido[1,2-e][1,2,5]thiadiazine-4-carboxylic acid 1,1-dioxide] | – | – | – | – | – | 4.2 | > 60 | 78 | > 60 | 199 | 1.3 to 4.5 |
